# Patent US20020137929A1, “1 - (3-heterocyclylphenyl) isothiourea, -isourea, -guanidine and -amidine herbicidal agents” (Intellectual Property Department, BASF Aktiengesellschaft, priority 1998, published 2002)
# Experiments:
# [1] = tested on: ORYSAT (Rice, Tebonnet); experiment: Postemergence herbicidal evaluation; type: in vivo, Oryza sativa, (L.) Tebonnet; details: postemergence
# Outline: (§1)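 Two-week seedlings sprayed postemergence at 40 psi; formulation: 1:1 acetone/water, 0.5% TWEEN 20; application ≈0.0156–0.500 kg/ha. Greenhouse grow-out, then 0–9 visual scoring at 4–5 weeks.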
# [2] = tested on: CYPIR (Rice Flatsedge); experiment: Preemergence weed control under flooded paddy conditions; type: in vivo, Cyperus iria; details: rated 3-4 weeks after treatment
# Outline: (§2)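 Seeds or propagules sown in silt loam kept flooded 1.5-3 cm; compounds in 50/50 acetone/water pipetted into flood water at about 0.0313 to 0.500 kg/ha. Greenhouse; visual 0-9 rating versus untreated control 3-4 weeks after treatment.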
# [3] = tested on: ECHORC (Watergrass (Calif.)); experiment: as above; type: in vivo, Echinochloa oryzoides; details: rated 3-4 weeks after treatment
# Outline: as §2
# [4] = tested on: ZEAMX (Corn, Field); experiment: Preemergence herbicidal evaluation; type: in vivo, Zea mays; details: rated 4-5 weeks after treatment
# Outline: (§3)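 Seeds were planted in potting soil in cups, then sprayed preemergence with the test compound in aqueous acetone at about 0.0156 to 0.500 kg per hectare. Cups were kept under greenhouse conditions and visually rated 4–5 weeks after treatment on a 0–9 scale against an untreated control.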
# [5] = tested on: SETVI (Foxtail, Green); experiment: Preemergence herbicidal evaluation; type: in vivo, Setaria viridis; details: rated 4-5 weeks after treatment
# Outline: as §3
# [6] = tested on: SETVI (Foxtail, Green); experiment: Postemergence herbicidal evaluation; type: in vivo, Setaria viridis; details: postemergence
# Outline: as §1
# [7] = tested on: ZEAMX (Corn, Field); experiment: Postemergence herbicidal evaluation; type: in vivo, Zea mays; details: postemergence
# Outline: as §1
# [8] = tested on: TRZAWR (Wheat, Winter, cv Riband); experiment: Preemergence herbicidal evaluation; type: in vivo, Triticum aestivum; details: rated 4-5 weeks after treatment
# Outline: as §3
# [9] = tested on: ECHCG (Barnyardgrass); experiment: Preemergence herbicidal evaluation; type: in vivo, Echinochloa crus-galli; details: rated 4-5 weeks after treatment
# Outline: as §3
# [10] = tested on: CYPSE (Flatsedge); experiment: Preemergence weed control under flooded paddy conditions; type: in vivo, Cyperus serotinus; details: rated 3-4 weeks after treatment
# Outline: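 Values are visual 0-9 scores against a control for a preemergence application into paddy flood water at about 0.0313 to 0.500 kg/ha. Greenhouse duration was three to four weeks.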
smiles,measurement,setting,value
"CCOC(=O)CN1C(=O)C(Cl)SC1=Nc1cc(-n2c(=O)cc(C(F)(F)F)n(C)c2=O)c(F)cc1Cl (stereo not drawn) [Compound 126, Ethyl 5-chloro-2-{{2-chloro-5-[3,6-dihydro-3-methyl-2,6-dioxo-4-(trifluoromethyl)-1(2H)-pyrimidinyl]-4-fluorophenyl}imino}-4-oxo-3-thiazolidineacetate]",herbicidal rating ORYSAT,[1]; rate 0.0156 kg/ha,0.0
same,herbicidal rating ORYSAT,[1]; rate 0.0313 kg/ha,0.5
same,herbicidal rating ORYSAT,[1]; rate 0.0625 kg/ha,0.5
same,herbicidal rating ORYSAT,[1]; rate 0.1250 kg/ha,1.0
same,"herbicidal effect rating, CYPIR",[2]; 0.0313 kg/ha,0.0
same,"herbicidal effect rating, CYPIR",[2]; 0.0625 kg/ha,0.0
same,"herbicidal effect rating, CYPIR",[2]; 0.1250 kg/ha,0.0
same,"herbicidal effect rating, CYPIR",[2]; 0.2500 kg/ha,2.0
same,"herbicidal effect rating, ECHORC",[3]; 0.0313 kg/ha,0.0
same,"herbicidal effect rating, ECHORC",[3]; 0.0625 kg/ha,3.0
same,"herbicidal effect rating, ECHORC",[3]; 0.1250 kg/ha,6.0
same,"herbicidal effect rating, ECHORC",[3]; 0.2500 kg/ha,7.0
same,Preemergence herbicidal rating ZEAMX,[4]; rate 0.0625 kg/ha,0.0
same,Preemergence herbicidal rating ZEAMX,[4]; rate 0.1250 kg/ha,2.0
same,Preemergence herbicidal rating ZEAMX,[4]; rate 0.2500 kg/ha,4.0
same,Preemergence herbicidal rating ZEAMX,[4]; rate 0.5000 kg/ha,8.0
same,Preemergence herbicidal rating SETVI,[5]; rate 0.0625 kg/ha,0.0
same,Preemergence herbicidal rating SETVI,[5]; rate 0.1250 kg/ha,0.0
same,Preemergence herbicidal rating SETVI,[5]; rate 0.2500 kg/ha,3.0
same,Preemergence herbicidal rating SETVI,[5]; rate 0.5000 kg/ha,9.0
same,herbicidal rating SETVI,[6]; rate 0.0156 kg/ha,0.0
same,herbicidal rating SETVI,[6]; rate 0.0313 kg/ha,3.0
same,herbicidal rating SETVI,[6]; rate 0.0625 kg/ha,3.0
same,herbicidal rating SETVI,[6]; rate 0.1250 kg/ha,9.0
same,herbicidal rating ZEAMX,[7]; rate 0.0156 kg/ha,4.0
same,herbicidal rating ZEAMX,[7]; rate 0.0313 kg/ha,4.0
same,herbicidal rating ZEAMX,[7]; rate 0.0625 kg/ha,4.5
same,herbicidal rating ZEAMX,[7]; rate 0.1250 kg/ha,6.5
same,Preemergence herbicidal rating TRZAWR,[8]; rate 0.0625 kg/ha,0.0
same,Preemergence herbicidal rating TRZAWR,[8]; rate 0.1250 kg/ha,0.0
same,Preemergence herbicidal rating TRZAWR,[8]; rate 0.2500 kg/ha,0.0
same,Preemergence herbicidal rating TRZAWR,[8]; rate 0.5000 kg/ha,0.0
same,Preemergence herbicidal rating ECHCG,[9]; rate 0.0625 kg/ha,0.0
same,Preemergence herbicidal rating ECHCG,[9]; rate 0.1250 kg/ha,0.0
same,Preemergence herbicidal rating ECHCG,[9]; rate 0.2500 kg/ha,0.0
same,Preemergence herbicidal rating ECHCG,[9]; rate 0.5000 kg/ha,2.0
same,"herbicidal effect rating, CYPSE",[10]; 0.0313 kg/ha,0.0
same,"herbicidal effect rating, CYPSE",[10]; 0.0625 kg/ha,0.0
same,"herbicidal effect rating, CYPSE",[10]; 0.1250 kg/ha,0.0
same,"herbicidal effect rating, CYPSE",[10]; 0.2500 kg/ha,0.0
"CCOC(=O)CN1C(=O)C(C(=O)OCC)SC1=Nc1cc(-n2c(=O)cc(C(F)(F)F)n(C)c2=O)c(F)cc1Cl (stereo not drawn) [Compound 127, 5-Carboxy-2-{{2-chloro-5-[3,6-dihydro-3-methyl-2,6-dioxo-4-(trifluoromethyl)-1(2H)-pyrimidinyl]-4-fluorophenyl}imino}-4-oxo-3-thiazolidineacetic acid, diethyl ester]",herbicidal rating ORYSAT,[1]; rate 0.0156 kg/ha,0.5
same,herbicidal rating ORYSAT,[1]; rate 0.0313 kg/ha,0.5
same,herbicidal rating ORYSAT,[1]; rate 0.0625 kg/ha,0.5
same,herbicidal rating ORYSAT,[1]; rate 0.1250 kg/ha,2.5
same,"herbicidal effect rating, CYPIR",[2]; 0.0313 kg/ha,2.0
same,"herbicidal effect rating, CYPIR",[2]; 0.0625 kg/ha,2.0
same,"herbicidal effect rating, CYPIR",[2]; 0.1250 kg/ha,4.0
same,"herbicidal effect rating, CYPIR",[2]; 0.2500 kg/ha,4.0
same,"herbicidal effect rating, ECHORC",[3]; 0.0313 kg/ha,4.0
same,"herbicidal effect rating, ECHORC",[3]; 0.0625 kg/ha,7.0
same,"herbicidal effect rating, ECHORC",[3]; 0.1250 kg/ha,9.0
same,"herbicidal effect rating, ECHORC",[3]; 0.2500 kg/ha,9.0
same,Preemergence herbicidal rating ZEAMX,[4]; rate 0.0313 kg/ha,0.0
same,Preemergence herbicidal rating ZEAMX,[4]; rate 0.0625 kg/ha,0.0
same,Preemergence herbicidal rating ZEAMX,[4]; rate 0.1250 kg/ha,0.0
same,Preemergence herbicidal rating ZEAMX,[4]; rate 0.2500 kg/ha,4.0
same,Preemergence herbicidal rating ZEAMX,[4]; rate 0.5000 kg/ha,8.0
same,Preemergence herbicidal rating SETVI,[5]; rate 0.0313 kg/ha,0.0
same,Preemergence herbicidal rating SETVI,[5]; rate 0.0625 kg/ha,0.0
same,Preemergence herbicidal rating SETVI,[5]; rate 0.1250 kg/ha,9.0
same,Preemergence herbicidal rating SETVI,[5]; rate 0.2500 kg/ha,9.0
same,Preemergence herbicidal rating SETVI,[5]; rate 0.5000 kg/ha,9.0
same,herbicidal rating SETVI,[6]; rate 0.0156 kg/ha,0.0
same,herbicidal rating SETVI,[6]; rate 0.0313 kg/ha,1.0
same,herbicidal rating SETVI,[6]; rate 0.0625 kg/ha,7.0
same,herbicidal rating SETVI,[6]; rate 0.1250 kg/ha,9.0
same,herbicidal rating ZEAMX,[7]; rate 0.0156 kg/ha,4.5
same,herbicidal rating ZEAMX,[7]; rate 0.0313 kg/ha,4.5
same,herbicidal rating ZEAMX,[7]; rate 0.0625 kg/ha,7.0
same,herbicidal rating ZEAMX,[7]; rate 0.1250 kg/ha,8.0
same,Preemergence herbicidal rating TRZAWR,[8]; rate 0.0313 kg/ha,0.0
same,Preemergence herbicidal rating TRZAWR,[8]; rate 0.0625 kg/ha,0.0
same,Preemergence herbicidal rating TRZAWR,[8]; rate 0.1250 kg/ha,0.0
same,Preemergence herbicidal rating TRZAWR,[8]; rate 0.2500 kg/ha,0.0
same,Preemergence herbicidal rating TRZAWR,[8]; rate 0.5000 kg/ha,7.0
same,Preemergence herbicidal rating ECHCG,[9]; rate 0.0313 kg/ha,0.0
same,Preemergence herbicidal rating ECHCG,[9]; rate 0.0625 kg/ha,0.0
same,Preemergence herbicidal rating ECHCG,[9]; rate 0.1250 kg/ha,0.0
same,Preemergence herbicidal rating ECHCG,[9]; rate 0.2500 kg/ha,0.0
same,Preemergence herbicidal rating ECHCG,[9]; rate 0.5000 kg/ha,0.0
same,"herbicidal effect rating, CYPSE",[10]; 0.0313 kg/ha,0.0
same,"herbicidal effect rating, CYPSE",[10]; 0.0625 kg/ha,0.0
same,"herbicidal effect rating, CYPSE",[10]; 0.1250 kg/ha,0.0
same,"herbicidal effect rating, CYPSE",[10]; 0.2500 kg/ha,0.0
